Assay results as given in article PMC10597453, “Novel inhibitors that target bacterial virulence identified via HTS against intra-macrophage survival of Shigella flexneri” (mSphere, 2023).
Values after ≈ are worked out from the molar mass of the structure shown. Read-outs that look alike come from different tables or passages of the source.

Assays:
[1] = test system: S. flexneri 2457T-nl in THP-1 macrophages; assay: Shigella intra-macrophage survival dose-response assay (luciferase readout)
Description: The experimental protocol for the Shigella intra-macrophage survival screen is divided into three time segments: (i) THP-1 macrophage and bacteria preparation 1 day prior to compound screen assay, (ii) THP-1 differentiation, invasion, gentamicin treatment, dispensing of infected cells onto plates pre-dispensed with compounds to be tested, and the beginning of their incubation performed on the same day, and (iii) dispensing of the Nano-Luc substrate and luminescence readout after 18 hours of incubation.
The assay was adapted to the 1,536-well plate format for the HTS. A multidrop dispenser with the small tube metal tip cassette (Thermo Fisher Scientific) was used to seed 5 µL of the cell suspension to plates pre-dispensed with compounds to be tested that were transferred to RT 1–1.5 hours before adding infected cells. Plates were incubated for 18 hours at 37°C in a humidified atmosphere with 5% CO2.
After incubation, the bacterial count is quantified by luminescence readout. Luminescence correlated linearly with the number of viable bacteria. The Nano-Luc substrate solution was prepared according to the manufacturer (Nano-Glo Luciferase Assay System, Promega, Madison, WI, USA). A multidrop dispenser with the small tube metal tip cassette (Thermo Fisher Scientific) was used to dispense 2 µL of substrate per well, and plates were stored in the dark prior to reading. Luminescence was read (0.1 s/well) on a microplate reader (EnVision, PerkinElmer) after 30 minutes of incubation at RT.
The dose-response assay was performed following the above protocol using different plate formats.

[2] = biological target: T1, Nano-Luc reporter (S. flexneri 2457T-nl reporter strain) (Oplophorus gracilirostris, UniProt Q9GV45, A31E/A60N/A81I/F95D/I117V/K70R/L54V/L99Q/M102K/N193R/P142E/Q151K/Q38R/Q45L/V71I/Y165I); assay: Nano-Luc inhibition (assay readout interference); format: cell-based
T1 construct: expressed in transfected cells; host or cells: Shigella flexneri serotype 2a strain 2457T carrying plasmid pMK-RQ-nl
T1 sequence (Q9GV45 28-196 with tags or gaps with the stated changes limits assumed): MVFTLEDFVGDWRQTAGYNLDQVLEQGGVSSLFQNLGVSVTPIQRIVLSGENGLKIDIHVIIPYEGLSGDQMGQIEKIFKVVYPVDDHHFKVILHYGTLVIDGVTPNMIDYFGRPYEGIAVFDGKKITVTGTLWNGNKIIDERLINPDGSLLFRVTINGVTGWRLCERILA

[3] = test system: Shigella propagation in Caco2 cells; assay: Inhibition of Shigella propagation in Caco2 cells assay; format: cell-based, Shigella flexneri; details: for IC50: INCACO2CELLS, Caco-2
Description: The inhibition of Shigella propagation in Caco2 cells assay was performed following the previously described protocol based on microcarrier cell culture which models the in vivo three-dimensional environment with the minor modifications. This protocol will be described in a forthcoming paper (V. Phat, A. Lim, S. Lozano, C. De Cozar-Gallardo, M. Castellote-Alvaro, J. Rodrigues, A. Villegas, D. Alvarez, E. Alvaro, L. Ballell-Pages, S. Baker, unpublished data) and is available upon request (see Data Availability Statement).

[4] = test system: S. flexneri 2457T; assay: Shigella antibacterial assay (resazurin); format: cell-based, Shigella flexneri; details: for MIC90: S. flexneri 2457T, resazurin assay
Description: An antibacterial assay against S. flexneri 2457T was performed according to the previously described protocol ([40]). The antibacterial assay was used to determine the MIC90 values of potential inhibitors for S. flexneri 2457T. The assay measures the effect of compounds on the bacteria using resazurin (Thermo Fisher Scientific) measurement as surrogate of bacterial viability. Briefly, to perform the extracellular dose responses, compounds were pre-dispensed in DMSO, and threefold serial dilutions were made for each compound into 384-well plate format. Bacterial inoculum for the assay was prepared in MH medium, resulting at 1 × 10^6 CFU/mL, and 5 µL of this culture was dispensed per well. Then, plates were incubated at 37°C overnight. The resazurin reagent (10 µL) was added to each well followed by an incubation at RT and darkness for 3 hours. The fluorescence intensity of the assay plates was measured using microplate reader (EnVision, PerkinElmer). For MIC90 determination, data were normalized by using DMSO at a final concentration of 0.5% as the negative control (100% bacterial growth) and moxifloxacin at a final concentration of 20 µM as the positive control (0% bacterial growth). The experiment was done in duplicate.

[5] = read-out: Nano-Luc interference IC50, S. flexneri 2457T-nl reporter strain in MH medium, 18 hours
[6] = Shigella flexneri, THP-1, 18 h, read-out: Survival inhibition IC50
[7] = Shigella flexneri, THP-1, read-out: Shigella Intra-macrophage Survival IC50

SMILES | IC50 [3] [µM] | IC50 [1, 6] [µM] | IC50 [2] [µM] | further results
COc1c(N2C[C@@H]3CCCN[C@@H]3C2)c(F)cc2c(=O)c(C(=O)O)cn(C3CC3)c12 [moxifloxacin, reference compound] |  |  |  | bacterial survival ([1]; 20 µM, macrophage permeable positive control): no detectable bacterial survival
CN(C(=O)Cc1cccs1)C1(C(=O)NC2CCCCC2)CCCCC1 [Compound S-185-01] | 4.3 | 0.7 |  | IC50 [2, 5]: 3.8 µM
COc1ccc2nc(NS(=O)(=O)c3cccc(C#N)c3)sc2c1 [DS-64-06] | 3.1 | 0.44 | 9.5 | 
COc1ccc(S(=O)(=O)Nc2ccc(Cl)cc2F)cc1[N+](=O)[O-] [DS2-187-03] | 3 | 0.7 |  | 
CO/N=C(\C(=O)N[C@@H]1C(=O)N2C(C(=O)O)=C(CSc3nc(=O)c(=O)[nH]n3C)CS[C@H]12)c1csc(N)n1 [Ceftriaxone, ceftriaxone, reference compound] |  |  |  | MIC90 ([4]; Shigella flexneri): 0.1 µM (≈ 0.0555 µg/mL); IC50 [1, 7]: 0.01 µM
Cc1ccc(-n2cc(C(=O)c3cc(C)ccc3O)cc(C#N)c2=O)cc1 [AN1-152-05] | 0.3 | 0.1 | 12 | 
Cc1nn(-c2ccccc2)c(C)c1S(=O)(=O)Nc1nc2c(s1)CCCC2 [DS-61-01] | 2.3 | 0.5 | 2.2 | 
O=S(=O)(Nc1ccc(F)cc1C(F)(F)F)c1ccc(-c2cccs2)s1 [DS1-32-04] | 3.8 | 0.41 |  | IC50 [2, 5]: 3.1 µM
Cc1ccc(-n2cc(C(=O)c3cc(F)ccc3O)cc(C#N)c2=O)cc1 [AN1-152-08] | 1.9 | 0.43 |  | 
CCOc1ccc(-n2cc(C(=O)c3cc(F)ccc3O)cc(C#N)c2=O)cc1 [AN1-152-10] |  | 0.24 | 50 | Propagation in Caco2 IC50 [3]: Inactive
CC[C@H]1OC(=O)[C@H](C)[C@@H](O[C@H]2C[C@@](C)(OC)[C@@H](O)[C@H](C)O2)[C@H](C)[C@@H](O[C@@H]2O[C@H](C)C[C@H](N(C)C)[C@H]2O)[C@](C)(O)C[C@@H](C)CN(C)[C@H](C)[C@@H](O)[C@]1(C)O [Azithromycin, azithromycin, reference compound] |  |  |  | MIC90 ([4]; Shigella flexneri): 10 µM (≈ 7.49 µg/mL); IC50 [1, 7]: 0.08 µM
Cc1ccc(C2=NN(C3=NC(=O)C(CC(=O)Nc4ccccc4)S3)C(c3ccccc3)C2)cc1 (stereo not drawn) [Compound S-10-01] | 0.5 | 0.41 | 11 | 
COc1ccc(CCNC(=O)c2nc(O)c3nnn(Cc4ccc(F)cc4)c3n2)cc1OC [Compound S-169-01] | 21 | 0.59 | 12 | 
COc1ccc(CN(C)S(=O)(=O)c2nnc(NC(=O)c3cccc(Cl)c3)s2)cc1OC [DS-299-02] | 2.5 | 0.8 | 4.6 | 
c1ccc(-n2nnnc2-c2cnoc2-c2cccs2)cc1 [PT-297–03] | 3 | 0.5 | 8.1 | 
Cc1ccc(NC(=O)CC2SC(N3N=C(c4cccs4)CC3c3ccccc3)=NC2=O)cc1 (stereo not drawn) [Compound S-10-03] | 1.1 | 0.62 |  | 
CC(C)c1noc2ncc(C(=O)c3ccccc3O)cc12 [Compound S-316-01] | 1.9 | 1.3 |  | 
Cc1cc(CNC(=O)CCc2c(C)nc3cc(O)nn3c2C)no1 [Compound S-86-01] | 1 | 0.27 | 1.7 | 
N#Cc1ccc(C(=O)Nc2nnc(-c3ccncc3)s2)cc1 [AN2-45-02] | 14 | 0.89 |  | 
COc1ccc(N2CCN(c3nc4ncccc4o3)CC2)cc1 [Compound S-281-01] | 24 | 0.64 | 28 | 
CC(C)(C)C(=O)OCOC(=O)[C@@H]1N2C(=O)[C@@H](/N=C/N3CCCCCC3)[C@H]2SC1(C)C [Pivmecillinam, pivmecillinam] |  |  |  | MIC relative to survival IC50 (times higher) ([4]; MIC vs intra-macrophage survival IC50): very similar; MIC90 ([4]; Shigella flexneri): 1 µM (≈ 0.44 µg/mL); IC50 [1, 7]: 0.9 µM
O=C(CN1CCc2ccccc2C1)Nc1cnccc1C(=O)O [Compound S-136-01] | 3.1 | 0.62 | 3 | 

SMILES | IC50 [3] [µM] | IC50 [1, 6] [µM] | IC50 [2] [µM] | further results
Cc1cccc(-n2cc(C(=O)c3cc(F)ccc3O)cc(C#N)c2=O)c1 [AN1-152-09] | 10 | 0.73 |  | 
O=S(=O)(Nc1ccccc1C(F)(F)F)c1ccc(-c2ccc(F)cc2)s1 [DS1-32-05] | 3.1 | 0.56 | 3 | 
N#Cc1cc(C(=O)c2ccccc2O)cn(-c2ccccn2)c1=O [AN1-152-01] | 2.7 | 0.31 | 25 | 
Cc1ccccc1-c1c(C#N)c(N)nc(SCc2ccccc2)c1C#N [AN1-77-01] | 14 | 0.79 |  | 
Cc1ccc(-n2cc(C(=O)c3cc(Cl)ccc3O)cc(C#N)c2=O)cc1 [AN1-152-04] | 6.2 | 0.57 |  | 
N#Cc1cc(C(=O)c2ccccc2O)cn(-c2ccc(Cl)cc2)c1=O [AN1-152-02] | 0.3 | 0.0039 | 3.7 | 
Fc1ccc(-c2oncc2-c2nnnn2-c2ccccc2)c(F)c1 [PT-297-01] | 2.1 | 0.43 | 8.3 | 
Fc1ccc(-c2oncc2-c2nnnn2-c2ccccc2)cc1F [PT-297-02] | 1.2 | 0.27 | 4.9 | 
Cc1ncccc1Oc1ncc(Cl)cc1S(=O)(=O)Nc1cccc(Cl)c1 [DS-90-01] | 10 | 1.2 | 65 | 
N#Cc1cc(C(=O)c2ccccc2O)cn(C2CCCC2)c1=O [AN1-152-03] | 1.7 | 0.48 | 62 | 
Cc1c(-c2cccs2)[nH]c2c(C#N)cnn2c1=O [AN-5-02] | 2.1 | 0.09 | 0.78 | 
CCN(C(=O)Cn1c(-c2nonc2N)nc2ccccc21)c1ccccc1 [Compound S-134-02] | 4.9 | 0.68 | 5.1 | 
CC(NC(=O)NC(C)c1cccs1)c1ccc2c(c1)OCCO2 (stereo not drawn) [Compound S-378-01] | 6.6 | 1 |  | 
N#Cc1ccc(C(=O)Nc2cccc(-c3ccc(CN4CCNCC4)cc3)c2)cc1 [AN-30-01] |  | 0.88 |  | Propagation in Caco2 IC50 [3]: Inactive
O=C(O)c1cn(C2CC2)c2cc(N3CCNCC3)c(F)cc2c1=O [Ciprofloxacin, ciprofloxacin, reference compound] |  |  |  | MIC90 ([4]; Shigella flexneri): 0.07 µM (≈ 0.0232 µg/mL); IC50 [1, 7]: 0.007 µM
CC1(C)S[C@@H]2[C@H](/N=C/N3CCCCCC3)C(=O)N2[C@H]1C(=O)O [Mecillinam, mecillinam, reference compound] |  |  |  | MIC90 ([4]; Shigella flexneri): 0.2 µM (≈ 0.0651 µg/mL); IC50 [1, 7]: 0.7 µM
COc1ccc(-c2ccn(CC[C@](C)(C(=O)NO)S(C)(=O)=O)c(=O)c2)c(F)c1 [PF-5081090, reference compound] |  |  |  | MIC90 [4]: 0.2 µM (≈ 0.0825 µg/mL); IC50 ([1]; read-out: Shigella Intra-macrophage Survival IC50, commercially available antibiotics, luciferase assay): 0.06 µM
COc1ccc(-n2cc(C(=O)c3cc(C)ccc3O)cc(C#N)c2=O)cc1 [AN1-152-07] | 0.2 | 0.21 | 27 | 
CCc1cccc(CC)c1NC(=O)c1c(-c2ccccc2)noc1C [Compound S-53-01] | 1.5 | 0.17 | 1.2 | 
Cc1noc2ncn(Cc3nc(Cc4ccccc4F)no3)c(=O)c12 [Compound S-82-01] | 19 | 1 | 19 | 
COc1ccc(-n2nnnc2SC(C(=O)N(C)C)c2ccccc2)cc1 (stereo not drawn) [Compound S-28-01] | 4.5 | 0.99 | 5 | 
COc1ccc(-n2cc(C(=O)c3cc(Cl)ccc3O)cc(C#N)c2=O)cc1 [AN1-152-06] | 3.9 | 0.49 |  | 
